From US20230248834A1, “DEGRADATION OF (EGFR) BY CONJUGATION OF EGFR INHIBITORS WITH E3 LIGASE LIGAND AND METHODS OF USE” (BEIGENE, LTD., priority 2020, published 2023)

Molecular target: T1, EGFR L858R/T790M/C797S (Homo sapiens, UniProt P00533, C797S/L858R/T790M)
T1 construct: expressed in transfected cells; host or cells: BaF3-LTC
Assay: EGFR degradation HTRF assay in BaF3-LTC cells
Type: cell-based
Conditions: BaF3-LTC (L858R/T790M/C797S), maximum percentage of inhibition (degradation); read-out: BaF3-LTC Dmax (%)
Method: BaF3-LTC(L858R/T790M/C797S) cells and BaF3 LC(L858R/C797S) cells are treated with compounds diluted in 0.2% DMSO cell culture medium and incubate for 16 h, 37° C., 5% CO2. the final concentration of compounds in all assay is start with 10 uM, 5-fold dilution, total 8 doses were included.
After 16 h treatment, add HTRF lysis buffer to each well; seal the plate and incubate 1 hour at room temperature on a plate shaker; Once the cells are lysed, 16 μL of cell lysate are transferred to a PE 384-well HTRF detection plate; 4 μL of pre-mixed HTRF antibodies are added to each well; Cover the plate with a plate sealer, spin 1000 rpm for 1 min, Incubate overnight at room temperature; Read on BMG PheraStar with HTRF protocol (337 nm-665 nm-620 nm).
The inhibition (degradation) percentage of the compound was calculated by the following equation: Inhibition percentage of Compound=100−100×(Signal−low control)/(High control−low control), wherein signal=each test compound group
High control=Cell group with added DMSO and without compound, indicating microplate readings without EGFR degradation;
Dmax is the maximum percentage of inhibition (degradation).
The IC50 (DC50) value of a compound can be obtained by fitting the following equation
Y=Bottom+(TOP−Bottom)/(1+((IC50/X)^hillslope))
Wherein, X and Y are known values, and IC50, Hillslope, Top and Bottom are the parameters obtained by fitting with software. Y is the inhibition percentage (calculated from the equation), X is the concentration of the compound; IC50 is the concentration of the compound when the 50% inhibition is reached. The smaller the IC50 value is, the stronger the inhibitory ability of the compound is. Vice versa, the higher the IC50 value is, the weaker the inhibitory ability of the compound is; Hillslope represents the slope of the fitted curve, generally around 1*; Bottom represents the minimum value of the curve obtained by data fitting, which is generally 0%±20%; Top represents the maximum value of the curve obtained by data fitting, which is generally 100%±20%. The experimental data were fitted by calculating and analyzing with Dotmatics data analysis software.

T1 sequence (P00533 25-1210 T790M/C797S/L858R): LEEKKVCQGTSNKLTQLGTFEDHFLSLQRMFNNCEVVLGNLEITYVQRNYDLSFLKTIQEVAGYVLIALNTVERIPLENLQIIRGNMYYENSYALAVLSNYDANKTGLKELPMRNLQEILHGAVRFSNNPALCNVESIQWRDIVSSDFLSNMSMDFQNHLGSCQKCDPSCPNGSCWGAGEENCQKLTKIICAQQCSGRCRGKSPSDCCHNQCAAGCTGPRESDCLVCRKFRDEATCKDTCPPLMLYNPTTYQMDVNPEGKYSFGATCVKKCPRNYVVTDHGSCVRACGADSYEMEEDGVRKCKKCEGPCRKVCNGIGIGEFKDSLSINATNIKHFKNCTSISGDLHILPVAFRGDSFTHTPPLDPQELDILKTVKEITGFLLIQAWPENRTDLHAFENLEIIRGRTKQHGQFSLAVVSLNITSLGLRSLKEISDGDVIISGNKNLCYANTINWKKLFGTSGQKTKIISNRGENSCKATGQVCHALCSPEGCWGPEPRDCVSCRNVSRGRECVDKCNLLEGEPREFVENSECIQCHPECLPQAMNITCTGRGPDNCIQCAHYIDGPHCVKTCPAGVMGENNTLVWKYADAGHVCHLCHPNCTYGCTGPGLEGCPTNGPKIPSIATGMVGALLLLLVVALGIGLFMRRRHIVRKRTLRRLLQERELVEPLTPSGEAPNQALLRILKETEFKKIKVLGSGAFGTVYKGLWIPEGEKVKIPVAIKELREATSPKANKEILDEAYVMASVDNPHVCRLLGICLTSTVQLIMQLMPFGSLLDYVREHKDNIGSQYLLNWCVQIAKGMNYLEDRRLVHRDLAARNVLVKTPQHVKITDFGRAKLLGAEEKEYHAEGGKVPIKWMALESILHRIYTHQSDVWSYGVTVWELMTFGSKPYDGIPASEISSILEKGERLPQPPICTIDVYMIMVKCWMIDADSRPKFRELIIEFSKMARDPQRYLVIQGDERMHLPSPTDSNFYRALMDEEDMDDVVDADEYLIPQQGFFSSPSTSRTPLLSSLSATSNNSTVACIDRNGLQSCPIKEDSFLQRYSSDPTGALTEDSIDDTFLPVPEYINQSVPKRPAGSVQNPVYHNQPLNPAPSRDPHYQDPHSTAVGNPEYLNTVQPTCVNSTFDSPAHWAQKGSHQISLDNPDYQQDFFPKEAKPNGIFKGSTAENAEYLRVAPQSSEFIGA

Row | SMILES | Dmax
1 | CCOc1cc(N2CCC(N3CCN(CC4CN(c5cc(F)c([C@H]6CCC(=O)NC6=O)c(F)c5)C4)CC3)CC2)c(CC)cc1Nc1ncc(Br)c(Nc2ccc3nc(CC)ccc3c2P(C)(C)=O)n1 [Example 541, (R)-3-(4-(3-((4-(1-(4-((5-bromo-4-((5-(dimethylphosphoryl)-2-ethylquinolin-6-yl)amino)pyrimidin-2-yl)amino)-5-ethoxy-2-ethylphenyl)piperidin-4-yl)piperazin-1-yl)methyl)azetidin-1-yl)-2,6-difluorophenyl)piperidine-2,6-dione] | 95.6%
2 | CCOc1cc(N2CCC(N3CCN(CCc4c(F)ccc5c4n(CC)c(=O)n5C4CCC(=O)NC4=O)CC3)CC2)c(CC)cc1Nc1ncc(Br)c(Nc2ccc3nc(CC)ccc3c2P(C)(C)=O)n1 (stereo not drawn) [Example 558, 3-(4-(2-(4-(1-(4-((5-bromo-4-((5-(dimethylphosphoryl)-2-ethylquinolin-6-yl)amino)pyrimidin-2-yl)amino)-5-ethoxy-2-ethylphenyl)piperidin-4-yl)piperazin-1-yl)ethyl)-3-ethyl-5-fluoro-2-oxo-2,3-dihydro-1H-benzo[d]imidazol-1-yl)piperidine-2,6-dione] | 95.9%
3 | [2H]C1([2H])CC([2H])(c2c(F)cc(CCN3CCN(C4CCN(c5cc(OCC)c(Nc6ncc(Br)c(Nc7ccc8nc(C)ccc8c7P(C)(C)=O)n6)cc5CC)CC4)CC3)cc2F)C(=O)NC1=O (stereo not drawn) [Example 570, 3-(4-(2-(4-(1-(4-((5-bromo-4-((5-(dimethylphosphoryl)-2-methylquinolin-6-yl)amino)pyrimidin-2-yl)amino)-5-ethoxy-2-ethylphenyl)piperidin-4-yl)piperazin-1-yl)ethyl)-2,6-difluorophenyl)piperidine-2,6-dione-3,5,5-d3] | 91.7%
4 | CCOc1cc(N2CCC(N3CCN(C(=O)[C@H]4CN(c5cc(F)c([C@H]6CCC(=O)NC6=O)c(F)c5)CC4(C)C)CC3)CC2)c(C)cc1Nc1ncc(Br)c(Nc2ccc3nc(C)ccc3c2P(C)(C)=O)n1 [Example 727, (R)-3-(4-((R)-4-(4-(1-(4-((5-bromo-4-((5-(dimethylphosphoryl)-2-methylquinolin-6-yl)amino)pyrimidin-2-yl)amino)-5-ethoxy-2-methylphenyl)piperidin-4-yl)piperazine-1-carbonyl)-3,3-dimethylpyrrolidin-1-yl)-2,6-difluorophenyl)piperidine-2,6-dione] | 97.5%
5 | CCOc1cc(N2CCC(N3CCN(CCc4cc(F)c([C@H]5CCC(=O)NC5=O)c(F)c4)CC3)CC2)c(CC)cc1Nc1ncc(Br)c(Nc2ccc3nc(C)c(F)cc3c2P(C)(C)=O)n1 [Example 728, (R)-3-(4-(2-(4-(1-(4-((5-bromo-4-((5-(dimethylphosphoryl)-3-fluoro-2-methylquinolin-6-yl)amino)pyrimidin-2-yl)amino)-5-ethoxy-2-ethylphenyl)piperidin-4-yl)piperazin-1-yl)ethyl)-2,6-difluorophenyl)piperidine-2,6-dione] | 95.3%
6 | COc1cc(N2CCC(N3CCN(C(=O)[C@H]4CN(c5cc(F)c([C@H]6CCC(=O)NC6=O)c(F)c5)CC4(C)C)CC3)CC2)c(C)cc1Nc1ncc(Br)c(Nc2ccc3nc(C)c(F)cc3c2P(C)(C)=O)n1 [Example 729, (R)-3-(4-((R)-4-(4-(1-(4-((5-bromo-4-((5-(dimethylphosphoryl)-3-fluoro-2-methylquinolin-6-yl)amino)pyrimidin-2-yl)amino)-5-methoxy-2-methylphenyl)piperidin-4-yl)piperazine-1-carbonyl)-3,3-dimethylpyrrolidin-1-yl)-2,6-difluorophenyl)piperidine-2,6-dione] | 97.1%
7 | CCOc1cc(N2CCC(N3CCN(CCc4cc(F)c([C@H]5CCC(=O)NC5=O)c(F)c4)CC3)CC2)c(CC)cc1Nc1ncc(Cl)c(Nc2cc(F)c3nc(CC)ccc3c2P(C)(C)=O)n1 [Example 730, (R)-3-(4-(2-(4-(1-(4-((5-chloro-4-((5-(dimethylphosphoryl)-2-ethyl-8-fluoroquinolin-6-yl)amino)pyrimidin-2-yl)amino)-5-ethoxy-2-ethylphenyl)piperidin-4-yl)piperazin-1-yl)ethyl)-2,6-difluorophenyl)piperidine-2,6-dione] | 83.7%
8 | CCOc1cc(N2CCC(N3CCN(CCc4c(F)cc(F)c5c4oc(=O)n5C4CCC(=O)NC4=O)CC3)CC2)c(CC)cc1Nc1ncc(Br)c(Nc2ccc3nc(CC)ccc3c2P(C)(C)=O)n1 (stereo not drawn) [Example 731, 3-(7-(2-(4-(1-(4-((5-bromo-4-((5-(dimethylphosphoryl)-2-ethylquinolin-6-yl)amino)pyrimidin-2-yl)amino)-5-ethoxy-2-ethylphenyl)piperidin-4-yl)piperazin-1-yl)ethyl)-4,6-difluoro-2-oxobenzo[d]oxazol-3(2H)-yl)piperidine-2,6-dione] | 80.3%
9 | COc1cc(N2CCC(N3CCN(C(=O)[C@@H]4CCN(c5cc(F)c([C@H]6CCC(=O)NC6=O)c(F)c5)C4)CC3)CC2)c(C)cc1Nc1ncc(Br)c(Nc2ccc3nc(C)c(F)cc3c2P(C)(C)=O)n1 [Example 732, (R)-3-(4-((R)-3-(4-(1-(4-((5-bromo-4-((5-(dimethylphosphoryl)-3-fluoro-2-methylquinolin-6-yl)amino)pyrimidin-2-yl)amino)-5-methoxy-2-methylphenyl)piperidin-4-yl)piperazine-1-carbonyl)pyrrolidin-1-yl)-2,6-difluorophenyl)piperidine-2,6-dione] | 95.5%
10 | CCOc1cc(N2CCC(N3CCN(CCc4cc(F)c([C@H]5CCC(=O)NC5=O)c(F)c4)CC3)CC2)c(CC)cc1Nc1ncc(C)c(Nc2cc(F)c3nc(CC)ccc3c2P(C)(C)=O)n1 [Example 733, (R)-3-(4-(2-(4-(1-(4-((4-((5-(dimethylphosphoryl)-2-ethyl-8-fluoroquinolin-6-yl)amino)-5-methylpyrimidin-2-yl)amino)-5-ethoxy-2-ethylphenyl)piperidin-4-yl)piperazin-1-yl)ethyl)-2,6-difluorophenyl)piperidine-2,6-dione] | 89.5%
11 | CCOc1cc(N2CCC(N3CCN(CCc4c(F)ccc5c4n(C)c(=O)n5C4CCC(=O)NC4=O)CC3)CC2)c(CC)cc1Nc1ncc(Br)c(Nc2ccc3nc(CC)ncc3c2P(C)(C)=O)n1 (stereo not drawn) [Example 736, 3-(4-(2-(4-(1-(4-((5-bromo-4-((5-(dimethylphosphoryl)-2-ethylquinazolin-6-yl)amino)pyrimidin-2-yl)amino)-5-ethoxy-2-ethylphenyl)piperidin-4-yl)piperazin-1-yl)ethyl)-5-fluoro-3-methyl-2-oxo-2,3-dihydro-1H-benzo[d]imidazol-1-yl)piperidine-2,6-dione] | 97%
12 | CCOc1cc(N2CCC(N3CCN(CCc4cccc5c4n(CC)c(=O)n5C4CCC(=O)NC4=O)CC3)CC2)c(CC)cc1Nc1ncc(Br)c(Nc2ccc3nc(CC)ncc3c2P(C)(C)=O)n1 (stereo not drawn) [Example 737, 3-(4-(2-(4-(1-(4-((5-bromo-4-((5-(dimethylphosphoryl)-2-ethylquinazolin-6-yl)amino)pyrimidin-2-yl)amino)-5-ethoxy-2-ethylphenyl)piperidin-4-yl)piperazin-1-yl)ethyl)-3-ethyl-2-oxo-2,3-dihydro-1H-benzo[d]imidazol-1-yl)piperidine-2,6-dione] | 97.7%
